Values of other authors, collected in patent US20060134230A1, “Weight loss composition and formulation” (priority 2004, published 2006).

Legend:
[1] = system: oxidative phosphorylation
[2] = system: glucose transport at the brush border of the small intestine; conditions: in vivo
lipases = conditions: in vivo
3T3-L1 = 3T3-L1 preadipocyte
fatty acid synthase = fatty acid synthase (Homo sapiens, UniProt P49327)
Chain of fatty acid synthase (P49327 whole entry, species assumed): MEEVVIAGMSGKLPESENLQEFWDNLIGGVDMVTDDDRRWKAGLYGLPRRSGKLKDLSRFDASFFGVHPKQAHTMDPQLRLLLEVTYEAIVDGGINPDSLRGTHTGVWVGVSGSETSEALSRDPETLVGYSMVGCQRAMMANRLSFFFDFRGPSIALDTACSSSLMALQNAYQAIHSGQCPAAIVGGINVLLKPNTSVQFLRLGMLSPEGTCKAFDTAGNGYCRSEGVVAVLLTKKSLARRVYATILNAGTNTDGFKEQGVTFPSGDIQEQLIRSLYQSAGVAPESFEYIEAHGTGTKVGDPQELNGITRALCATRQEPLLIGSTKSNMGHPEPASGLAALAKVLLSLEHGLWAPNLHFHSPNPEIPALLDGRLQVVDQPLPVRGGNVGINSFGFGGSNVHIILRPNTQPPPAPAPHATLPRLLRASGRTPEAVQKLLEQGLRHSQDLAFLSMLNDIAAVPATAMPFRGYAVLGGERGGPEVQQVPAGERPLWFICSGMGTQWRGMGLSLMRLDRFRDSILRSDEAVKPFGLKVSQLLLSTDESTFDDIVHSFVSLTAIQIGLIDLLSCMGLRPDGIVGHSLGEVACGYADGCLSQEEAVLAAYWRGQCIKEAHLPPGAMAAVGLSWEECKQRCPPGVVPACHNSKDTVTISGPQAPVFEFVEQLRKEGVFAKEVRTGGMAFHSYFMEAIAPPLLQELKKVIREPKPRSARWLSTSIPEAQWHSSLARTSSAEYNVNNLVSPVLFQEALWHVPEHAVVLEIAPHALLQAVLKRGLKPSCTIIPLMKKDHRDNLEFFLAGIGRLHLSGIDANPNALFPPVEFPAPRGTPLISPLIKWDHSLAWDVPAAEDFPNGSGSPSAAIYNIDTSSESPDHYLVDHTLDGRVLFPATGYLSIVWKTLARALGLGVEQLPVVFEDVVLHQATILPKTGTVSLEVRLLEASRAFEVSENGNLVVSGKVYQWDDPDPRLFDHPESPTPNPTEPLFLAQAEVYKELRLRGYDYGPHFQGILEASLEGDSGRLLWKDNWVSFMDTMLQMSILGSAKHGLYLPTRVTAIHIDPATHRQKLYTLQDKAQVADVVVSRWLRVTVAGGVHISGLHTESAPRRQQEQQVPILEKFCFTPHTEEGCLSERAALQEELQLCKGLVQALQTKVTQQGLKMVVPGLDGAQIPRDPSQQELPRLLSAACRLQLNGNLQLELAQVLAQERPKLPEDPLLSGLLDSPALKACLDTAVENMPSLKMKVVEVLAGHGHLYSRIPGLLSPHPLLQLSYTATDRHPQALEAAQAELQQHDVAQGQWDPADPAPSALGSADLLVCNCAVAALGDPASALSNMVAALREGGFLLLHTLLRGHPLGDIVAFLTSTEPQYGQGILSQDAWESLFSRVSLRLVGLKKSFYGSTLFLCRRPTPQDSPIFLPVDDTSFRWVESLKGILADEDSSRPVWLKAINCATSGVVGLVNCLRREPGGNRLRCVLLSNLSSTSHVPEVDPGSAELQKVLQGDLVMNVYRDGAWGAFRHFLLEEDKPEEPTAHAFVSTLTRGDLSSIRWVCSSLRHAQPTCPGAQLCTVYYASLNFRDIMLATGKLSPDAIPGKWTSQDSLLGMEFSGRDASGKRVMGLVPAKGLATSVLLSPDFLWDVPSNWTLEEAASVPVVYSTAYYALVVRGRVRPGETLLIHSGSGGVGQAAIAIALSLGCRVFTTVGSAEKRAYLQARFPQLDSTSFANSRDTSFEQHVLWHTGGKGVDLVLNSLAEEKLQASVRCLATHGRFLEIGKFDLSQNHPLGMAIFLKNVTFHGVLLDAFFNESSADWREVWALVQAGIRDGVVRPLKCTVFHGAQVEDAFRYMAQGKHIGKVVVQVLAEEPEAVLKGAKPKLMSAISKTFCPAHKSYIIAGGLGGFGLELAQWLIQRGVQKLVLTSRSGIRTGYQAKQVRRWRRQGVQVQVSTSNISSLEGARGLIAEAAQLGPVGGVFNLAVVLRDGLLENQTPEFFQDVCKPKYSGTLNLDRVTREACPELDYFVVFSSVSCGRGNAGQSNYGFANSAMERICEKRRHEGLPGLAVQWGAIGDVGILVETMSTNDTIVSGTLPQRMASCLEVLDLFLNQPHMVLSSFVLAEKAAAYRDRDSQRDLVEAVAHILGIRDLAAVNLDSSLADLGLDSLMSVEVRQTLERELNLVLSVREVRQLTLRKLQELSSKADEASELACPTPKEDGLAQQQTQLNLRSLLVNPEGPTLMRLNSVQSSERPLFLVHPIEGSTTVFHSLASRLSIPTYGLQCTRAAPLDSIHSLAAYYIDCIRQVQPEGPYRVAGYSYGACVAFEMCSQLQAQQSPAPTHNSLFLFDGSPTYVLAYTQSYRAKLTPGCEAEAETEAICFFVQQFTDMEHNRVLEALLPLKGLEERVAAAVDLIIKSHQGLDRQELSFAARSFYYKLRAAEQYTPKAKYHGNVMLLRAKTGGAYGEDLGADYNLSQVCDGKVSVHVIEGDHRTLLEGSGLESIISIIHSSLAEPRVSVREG

Q: For CC(C)(O)[C@@H]1Cc2cc3ccc(=O)oc3cc2O1 [marmesin], which oxidative uncoupling [1] is on record?
A: act as oxidative uncouplers

Q: With CC(C)=CCOc1c2occc2cc2ccc(=O)oc12 [imperatorin] as the compound, how does the oxidative uncoupling [1] read?
A: act as oxidative uncouplers

Q: With CC1(C)CC[C@]2(C(=O)O)CC[C@]3(C)C(=CC[C@@H]4[C@@]5(C)CC[C@H](O)C(C)(C)[C@@H]5CC[C@]43C)[C@@H]2C1 [oleanic acid] as the compound, how does the “glucose transport at the brush border of the small intestine” value [2] read?
A: inhibiting glucose transport at the brush border of the small intestine

Q: What about the “transfer of glucose from the stomach to the small intestine” value [2] of the same compound?
A: suppress the transfer of glucose from the stomach to the small intestine

Q: Which oxidative uncoupling [1] does the source give for C=CC(C)(C)c1cc2cc3c(cc2oc1=O)O[C@H](C(C)(C)O)C3 [chalepin] here?
A: act as oxidative uncouplers

Q: Which “dietary fat blocked from being absorbed” value (lipases) does the source give for CCCCCCCCCCC[C@@H](C[C@@H]1OC(=O)[C@H]1CCCCCC)OC(=O)[C@H](CC(C)C)NC=O [Xenical] here?
A: about 30%

Q: For Cc1cc(O)c2c(c1)C(=O)c1cc(O)cc(O)c1C2=O [emodin, 3-methyl-1,6,8-trihydroxy-anthraquinone], which “inhibition of differentiation of 3T3-L1” value (3T3-L1) is on record?
A: inhibition of differentiation of 3T3-L1

Q: What about the “inhibition effect on fatty acid synthase” value (fatty acid synthase) of the same compound?
A: inhibition effect on fatty acid synthase, which is dose dependent
